The values below come from paper PMC12001203, “Binding‐Site Purification of Actives (B‐SPA) Enables Efficient Large‐Scale Progression of Fragment Hits by Combining Multi‐Step Array Synthesis With HT Crystallography” (Angewandte Chemie (International Ed. in English), 2025).

The target of the assay is T1, Pleckstrin Homology Domain‐Interacting Protein, second bromodomain (PHIP(2)) (Homo sapiens, UniProt Q8WWQ0).
T1 construct: second bromodomain (PHIP(2))
Briefly: grating-coupled interferometry (waveRAPID) Kd; crystal structure; AlphaScreen IC50. In kind it is binding.

As for `O=C(Nc1nc2ccccc2o1)N1CCN(C(=O)c2ccco2)CC1` [PHIP-AM1-20, PHIP‐AM1‐20], the Kd – broadly, the equilibrium constant for the complex coming apart – was found to be 50 µM.
